# In US11857550B2, “Benzathine analogs” (University of Pittsburgh—Of the Commonwealth System of …, priority 2012, dated 2024):
# Assays:
# [1] = test system: Staphylococcus aureus; experiment: Kirby-Bauer antibiotic sensitivity test on Mueller-Hinton agar; type: cell-based; conditions: 6 mm filter papers, 37 degrees, 24 h
# Experimental: FIG. 19. Kirby-Bauer antibiotic testing. BC-1215 was tested in antibiotic sensitivity tests using Mueller-Hinton agar. Briefly, 6 mm filter papers containing different amounts of BC-1215 or gentamicin (positive control) were added on the Mueller-Hinton agar pre-exposed to Staphylococcus aureus. The plates were incubated at 37 degrees for 24 h. Zone sizes were measured and marked by a red circle indicating positive results.
# Briefly, 6 mm filter papers containing different amounts of BC-1215 or gentamicin antibiotic (positive control) were added on the Mueller-Hinton agar pre-exposed to Staphylococcus aureus. The plates were incubated at 37 degrees for 24 h. Zone sizes were measured and marked by a red circle indicating positive results.
# [2] = test system: C57BL6 mice; type: in vivo; conditions: mouse, in vivo
# [3] = test system: C57BL6 mice; experiment: TPA induced ear edema; type: in vivo; conditions: topical, 8, 40, 200 ug/ear, 18 h after TPA
# Experimental: FIGS. 15A-15C. […] FIG. 15A-15C. C57BL6 mice were deeply anesthetized with ketamine (80-100 mg/kg i.p.) and xylazine (10 mg/kg i.p.). 20 μl of ethanol solution of BC-1215 was applied to ears at 8, 40, 200 ug/ear 30 min after TPA administration (2 μg/ear). Comparisons included equal volumes of ethanol (vehicle control). 18 h after TPA administration, mice were euthanized; the thickness of the ear was measured using a micrometer (FIG. 15B). Ear punch biopsies were also taken immediately, weighed and graphed (FIG. 15C).
# FIGS. 23A-23D. […] Different dose of BC-1261 was applied to ears of mice at various doses 30 min after TPA administration (2 μg/ear). A. Gross comparisons were made with equal volumes of ethanol as a vehicle control (CON). 18 h after TPA administration, mice were euthanized and the thickness of the ear was measured using a micrometer (B). Autopsy sample were also taken to measure MPO activity (C) and calculate ear edema (D). The data represent n=6 mice/group, *P<0.05 versus TPA.
# Topical application of BC-1215 as an anti-inflammatory agent was tested in a model of 12-O-tetradecanoylphorbol-13-acetate (TPA) induced ear edema (Bralley et. al., J Inflamm (LOnd), 2008. 5:p.1). Briefly, 20 μl of an ethanol solution of BC-1215 was applied to ears of mice at 8, 40, and 200 ug/ear for 30 min after TPA administration (2 μg/ear). Comparisons included equal volumes of ethanol (vehicle control). 18 h after TPA administration, mice were euthanized; the thickness of the ear was measured using a micrometer. Ear punch biopsies were also taken immediately, weighed, and graphed.
# [4] = test system: C57BL6 mice; experiment: Carrageenan induced paw edema; type: in vivo; conditions: 200 ug IP daily, 48 h
# Experimental: FIGS. 16A-16C. BC-1215 reduces Carrageenan induced paw edema. FIGS. 16A-16C. C57BL6 mice were deeply anesthetized with ketamine (80-100 mg/kg i.p.) and xylazine (10 mg/kg i.p.). Mice were received a subplantar administration of 25 ul of saline or 25 ul of carrageenan (1% in saline), followed by an IP injection of […] of BC-1215 daily for two days. Mice were then euthanized; the thickness and volume of paw was measured (FIG. 16B-16C). (n=4 mice/group, *p<0.05 versus vehicle)
# BC-1215 ameliorates Carrageenan induced paw edema. BC-1215 also was tested in a mouse paw edema model to confirm its anti-inflammatory activity. Mice received subplantar administration of 25 ul of saline or 25 ul of carrageenan (1% in saline) (Posadas et al., Br J Pharmacol, 2004. 142(2):p. 331-8), followed by an IP injection of 200 ug of BC-1215 daily. 48 h later, mice were euthanized; the thickness and volume of the paw was measured. […] Thus, the FBXO3 inhibitor BC-1215 suppresses inflammation in a nonpulmonary model of edema involving the extremities.
# [5] = biological target: T1, COX-2 (Mus musculus, UniProt Q05769); experiment: COX-2 activity in MLE cells; type: cell-based, murine; conditions: 10 ug/ml, 24 h; positive control DuP-697
# T1 construct: MLE cells were treated with BC-1215 (10 ug/ml) for 24 h before assaying for COX-2 activity (Cayman); endogenous in cells; host or cells: MLE (murine lung epithelial) cells
# T1 sequence (Q05769 18-604): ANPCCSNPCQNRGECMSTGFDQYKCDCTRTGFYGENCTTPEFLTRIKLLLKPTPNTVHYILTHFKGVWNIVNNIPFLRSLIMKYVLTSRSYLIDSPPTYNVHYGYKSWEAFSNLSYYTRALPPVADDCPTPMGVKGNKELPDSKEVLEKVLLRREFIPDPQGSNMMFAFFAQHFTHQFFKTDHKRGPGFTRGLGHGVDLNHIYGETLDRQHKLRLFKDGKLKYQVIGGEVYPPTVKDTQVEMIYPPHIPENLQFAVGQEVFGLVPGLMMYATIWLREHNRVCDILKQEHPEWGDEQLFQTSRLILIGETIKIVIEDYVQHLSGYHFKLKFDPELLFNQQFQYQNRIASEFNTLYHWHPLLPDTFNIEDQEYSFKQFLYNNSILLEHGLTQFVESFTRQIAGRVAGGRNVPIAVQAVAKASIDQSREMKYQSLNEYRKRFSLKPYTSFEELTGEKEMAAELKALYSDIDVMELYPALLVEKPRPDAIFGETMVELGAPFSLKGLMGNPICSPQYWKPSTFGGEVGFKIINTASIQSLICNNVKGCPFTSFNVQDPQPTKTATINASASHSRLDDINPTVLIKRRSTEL
# [6] = biological target: FBXO3 (Homo sapiens, UniProt Q9UK99); experiment: In vitro ubiquitination assay, SCFFBXO3 complex with V5-FBXL2 substrate; type: biochemical; conditions: increased concentration of compound
# Sequence of FBXO3 (Q9UK99 whole entry): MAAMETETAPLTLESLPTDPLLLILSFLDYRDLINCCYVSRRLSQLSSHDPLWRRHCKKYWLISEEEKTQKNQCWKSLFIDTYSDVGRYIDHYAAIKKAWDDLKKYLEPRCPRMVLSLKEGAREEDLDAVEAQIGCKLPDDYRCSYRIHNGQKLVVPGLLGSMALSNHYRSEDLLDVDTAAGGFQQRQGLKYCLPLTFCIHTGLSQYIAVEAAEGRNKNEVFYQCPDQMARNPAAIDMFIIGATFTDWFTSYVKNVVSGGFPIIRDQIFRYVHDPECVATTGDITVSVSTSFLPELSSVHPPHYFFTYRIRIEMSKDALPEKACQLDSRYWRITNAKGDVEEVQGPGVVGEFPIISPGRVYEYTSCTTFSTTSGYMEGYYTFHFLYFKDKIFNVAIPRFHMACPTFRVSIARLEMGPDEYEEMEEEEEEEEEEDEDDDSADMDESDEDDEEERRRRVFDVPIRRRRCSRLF
# Sequence of FBXO3 (P63208 whole entry partner): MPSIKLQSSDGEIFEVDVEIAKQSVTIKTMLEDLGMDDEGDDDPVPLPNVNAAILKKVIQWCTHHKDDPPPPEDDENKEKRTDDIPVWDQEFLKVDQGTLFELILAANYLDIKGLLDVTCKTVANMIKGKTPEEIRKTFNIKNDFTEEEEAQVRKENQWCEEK
# Sequence of FBXO3 (Q13616 whole entry partner): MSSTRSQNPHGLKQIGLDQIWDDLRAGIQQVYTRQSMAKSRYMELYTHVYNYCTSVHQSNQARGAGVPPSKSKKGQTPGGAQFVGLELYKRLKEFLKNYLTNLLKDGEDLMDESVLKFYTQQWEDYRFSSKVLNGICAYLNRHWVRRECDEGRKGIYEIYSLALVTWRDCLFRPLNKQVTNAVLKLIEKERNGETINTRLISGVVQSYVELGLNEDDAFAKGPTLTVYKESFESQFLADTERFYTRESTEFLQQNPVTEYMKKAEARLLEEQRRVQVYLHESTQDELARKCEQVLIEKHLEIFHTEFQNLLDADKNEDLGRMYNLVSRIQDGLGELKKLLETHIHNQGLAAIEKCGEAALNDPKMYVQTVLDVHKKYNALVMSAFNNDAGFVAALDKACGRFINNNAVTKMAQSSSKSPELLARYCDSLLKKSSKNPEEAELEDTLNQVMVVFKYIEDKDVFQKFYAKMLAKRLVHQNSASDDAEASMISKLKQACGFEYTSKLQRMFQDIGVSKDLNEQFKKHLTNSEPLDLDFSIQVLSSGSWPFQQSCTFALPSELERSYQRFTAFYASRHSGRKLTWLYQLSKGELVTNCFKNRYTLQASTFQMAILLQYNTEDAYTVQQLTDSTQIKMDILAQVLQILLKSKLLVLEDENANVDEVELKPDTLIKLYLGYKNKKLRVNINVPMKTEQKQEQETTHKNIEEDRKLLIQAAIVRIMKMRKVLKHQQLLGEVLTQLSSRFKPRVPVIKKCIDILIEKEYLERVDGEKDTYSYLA
# Sequence of FBXO3 (P62877 whole entry partner): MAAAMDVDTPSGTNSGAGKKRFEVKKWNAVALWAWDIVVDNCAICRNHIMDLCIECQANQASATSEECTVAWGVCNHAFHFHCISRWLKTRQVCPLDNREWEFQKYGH
# Text: FIGS. 10A-10E. BC-1215 inhibits FBXO3 and decreases TRAF protein levels. FIG. 10A. […] FIG. 10B. In vitro ubiquitination assays. […] FIG. 10C. […] Cells were collected and assayed for immunoblotting. FIG. 10D. […] FIG. 10E.
# BC-1215 inhibits FBXO3 and decreases TRAF protein levels. […] Cells were collected and assayed for protein immunoblotting.
smiles,measurement,setting,value
c1ccc(-c2ccc(CNCCNCc3ccc(-c4ccccn4)cc3)cc2)nc1 [BC-1215],S. aureus proliferation (zone of inhibition),[1],inhibits S. aureus proliferation
same,cell infiltrates,[2],remarkably decreased
same,lavage cell counts,[2],remarkably decreased
same,lavage protein concentration,[2],remarkably decreased
same,lung compliance,[2],increased compliance
same,lung edema,[2],remarkably decreased
same,lung elastance,[2],reduced elastance
same,survival,[2],significantly increased their survival
same,ear edema,[3],significantly resolve edema
same,ear thickness,[3],significantly reduced
same,ear weight (punch biopsies),[3],significantly reduced
same,paw edema,[4],significantly reduced
same,paw thickness,[4],significantly reduced
same,COX-2 activity,[5],did not alter COX-2 activity
same,FBXO3 catalyzed FBXL2 polyubiquitination,[6],able to inhibit FBXO3 catalyzed FBXL2 polyubiquitination
